Structures are written as SMILES.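 1) Cells in 96-well plates. 2) Compound, 48 h, 5 concentrations. 3) Linear interpolation between surrounding doses. 4) Unreached endpoint = highest concentration. GI50: concentration for 50% inhibition of growth.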 Calls of active or inactive are those of the source. Rule as the data show it: active = GI50 up to about 1.1 µM and inactive = higher.

What all share (test): growth of human tumour cells (NCI), 48 h
For test [1], the system named is A549.
Test [2] has as its system COLO 205.
The test system of test [3] is EKVX.
The test system of test [4] is HCT-116.
Test [5] relates to MDA-MB-231.
Test [6] concerns MDA-N.
The subject of test [7] is MOLT-4.
The test system of test [8] is Malme-3M.
The test system of test [9] is NCI-H522.
Test [10] relates to OVCAR-4.
For test [11], the system named is OVCAR-8.
The test system of test [12] is PC-3.
For test [13], the system named is SF-295.
For test [14], the system named is SK-OV-3.
The test system of test [15] is SN12C.
Test [16] has as its system SNB-75.
Test [17] has as its system SR.
Test [18] relates to T47D.
In test [19] the test system is UACC-257.

For `CCCCCCCCCC(=O)N[C@@H](c1ccco1)[C@@H](O)C(=O)O[C@H]1C[C@@]2(O)[C@@H](OC(=O)c3ccccc3)[C@@H]3[C@]4(OC(C)=O)CO[C@@H]4C[C@H](O)[C@@]3(C)C(=O)[C@H](OC(C)=O)C(=C1C)C2(C)C`, the GI50 in test [1] was 0.0318 µM (active); in test [2] it was < 0.005 µM (active); in test [3] it was 10 µM (inactive); in [4] it was 0.00539 µM (active); in test [5], 0.101 µM (active); in test [6] it was < 0.005 µM (active). The GI50 in test [7] is 0.0124 µM (active); in test [8], 0.0269 µM (active); in [9], 0.0149 µM (active); in test [10], 1.34 µM (inactive); in test [11] it was 0.0298 µM (active); in test [12], 0.64 µM (active). Moreover, the GI50 in [13] was 0.0389 µM (active); in [14] it was 0.0269 µM (active); in [15] it was 0.0407 µM (active); in [16] it was 0.989 µM (active); in test [17] it was 0.0101 µM (active); in test [18] it was 0.178 µM (active). The GI50 in test [19] was 0.0374 µM (active).

As for `CNC(=O)N(CCC#N)CCCN(C(=O)N(C)C)c1ccccc1`, the GI50 in test [1], in test [2], in test [3], in test [4], in test [5] and in test [6] was > 100 µM (inactive) in each case. The GI50 in test [7], in test [8], in test [9], in test [10], in test [11] and in test [12] was > 100 µM (inactive) in each case. For the same compound, the GI50 is > 100 µM (inactive) in test [13]; > 100 µM (inactive) in test [14]; > 100 µM (inactive) in [15]; > 100 µM (inactive) in [16]; 14.5 µM (inactive) in [17]; > 100 µM (inactive) in test [18]. The GI50 in [19] is > 100 µM (inactive).

Take `COc1ccc(/C=C/c2cc(=O)cc(/C=C/c3ccc(OC)c(O)c3)o2)cc1O`: the GI50 was 3.14 µM (inactive) in test [1]; 11.2 µM (inactive) in [2]; 4.52 µM (inactive) in [3]; 2.43 µM (inactive) in test [4]; 2.05 µM (inactive) in test [5]; 1.44 µM (inactive) in test [6]. The GI50 in test [7] was 2.24 µM (inactive); in [8], 2.16 µM (inactive); in test [9], 2.24 µM (inactive); in test [10], 2.81 µM (inactive); in [11] it was 2.91 µM (inactive); in test [12], 3.26 µM (inactive). The GI50 in test [13] is 3.52 µM (inactive); in test [14] it was 5.66 µM (inactive); in [15], 3.17 µM (inactive); in test [16] it was 3.82 µM (inactive); in [17] it was 1.02 µM (active); in test [18] it was 1.98 µM (inactive). Moreover, the GI50 in test [19] is 2.04 µM (inactive).

With `O=C1c2cccc3cccc(c23)C(=O)N1CCCNCCCNCCCCNCCCNCCCN1C(=O)c2cccc3cccc(c23)C1=O`, the GI50 in test [1] is 2.67 µM (inactive); in [2], 1.14 µM (inactive); in test [3], 5.48 µM (inactive); in [4], 1.67 µM (inactive); in test [5], 3.78 µM (inactive); in test [6] it was 2.36 µM (inactive). The GI50 in [7] is 0.376 µM (active); in test [8] it was 2.6 µM (inactive); in [9], 0.789 µM (active); in test [10], 2.83 µM (inactive); in test [11] it was 4.93 µM (inactive); in test [12], 3.23 µM (inactive). Further, the GI50 in test [13] was 7.45 µM (inactive); in test [14], 12.9 µM (inactive); in [15] it was 3.44 µM (inactive); in [16], 2.52 µM (inactive); in test [17] it was 0.929 µM (active); in [18], 5.26 µM (inactive). For the same compound, in test [19], the GI50 is 6.7 µM (inactive).

In the case of `CCOC(=O)C(SCCO)C(C(=O)OCC)n1cnc2c(=O)[nH]c(NC(C)=O)nc21` (stereo not drawn), the GI50 in [1], in [2], in test [3], in test [4], in test [5] and in [6] was > 100 µM (inactive) throughout. The GI50 in test [7], in [8], in test [9], in [10], in test [11] and in test [12] was > 100 µM (inactive) throughout. Moreover, the GI50 in [13] is > 100 µM (inactive); in test [14], > 100 µM (inactive); in [15] it was > 100 µM (inactive); in test [16] it was > 100 µM (inactive); in test [17], 21.4 µM (inactive); in test [18], > 100 µM (inactive). Moreover, the GI50 in test [19] is > 100 µM (inactive).

As to `Clc1ccc(Cc2nc3ccccc3nc2-c2cccc(Br)c2)cc1`, the GI50 in test [1] is 17 µM (inactive); in test [2], 3.17 µM (inactive); in [3] it was 15.1 µM (inactive); in [4], 1.88 µM (inactive); in test [5], 3.6 µM (inactive); in test [6], 1.97 µM (inactive). Also, the GI50 in test [7] is 2.22 µM (inactive); in test [8], 4.45 µM (inactive); in test [9], 1.78 µM (inactive); in [10], 2.18 µM (inactive); in [11], 2.92 µM (inactive); in test [12], 1.92 µM (inactive). Besides, the GI50 in test [13] was 16.1 µM (inactive); in test [14] it was 16.8 µM (inactive); in test [15], 3.1 µM (inactive); in test [16] it was 20.4 µM (inactive); in [17], 1.75 µM (inactive); in test [18], 1.87 µM (inactive). In addition, in [19], the GI50 was 3.1 µM (inactive).

For the compound `CCOC(=O)CCC(NC(=O)c1ccc(OCc2ccc3nc(-c4ccccc4)c(Cl)nc3c2)cc1)C(=O)OCC` (stereo not drawn), the GI50 in test [1] was 19.5 µM (inactive); in test [2], > 100 µM (inactive); in [3], 19.9 µM (inactive); in test [4], > 31.6 µM (inactive); in test [5], 24.3 µM (inactive); in test [6], > 100 µM (inactive). In addition, the GI50 in test [7] is > 31.6 µM (inactive); in test [8], > 100 µM (inactive); in test [9], 17.4 µM (inactive); in test [10] it was 16.4 µM (inactive); in test [11], 14.2 µM (inactive); in test [12], 7.4 µM (inactive). Further, the GI50 in [13] was 22 µM (inactive); in test [14], 52.1 µM (inactive); in [15], > 100 µM (inactive); in test [16], 16.8 µM (inactive); in test [17] it was 12.9 µM (inactive); in [18], 16.6 µM (inactive). For the same compound, the GI50 in test [19] was > 31.6 µM (inactive).

(Values after ChEMBL document CHEMBL1201862, “PubChem BioAssay data set” (2004).)
